SMILES strings stand for the structures. Where two headings read alike, the source gives them in different places. A value given as a limit tells only on which side of the number the result lay.

The values that follow come from patent US4861798A, “Lipoxygenase inhibitory compounds” (Bristol-Myers Company, priority 1987, dated 1989).

What all share (type): cell-based
Test [1] addresses T1, 5-lipoxygenase (Human Leukocyte/PMNL 5-LPO) (Homo sapiens, UniProt P09917).
T1 construct: Human neutrophils and platelets were obtained from the blood of normal volunteers; endogenous in cells; host or cells: human blood leukocytes (neutrophils) of normal volunteers, with 0.1 to 0.5 platelets per leukocyte
T1 sequence (P09917 1-674): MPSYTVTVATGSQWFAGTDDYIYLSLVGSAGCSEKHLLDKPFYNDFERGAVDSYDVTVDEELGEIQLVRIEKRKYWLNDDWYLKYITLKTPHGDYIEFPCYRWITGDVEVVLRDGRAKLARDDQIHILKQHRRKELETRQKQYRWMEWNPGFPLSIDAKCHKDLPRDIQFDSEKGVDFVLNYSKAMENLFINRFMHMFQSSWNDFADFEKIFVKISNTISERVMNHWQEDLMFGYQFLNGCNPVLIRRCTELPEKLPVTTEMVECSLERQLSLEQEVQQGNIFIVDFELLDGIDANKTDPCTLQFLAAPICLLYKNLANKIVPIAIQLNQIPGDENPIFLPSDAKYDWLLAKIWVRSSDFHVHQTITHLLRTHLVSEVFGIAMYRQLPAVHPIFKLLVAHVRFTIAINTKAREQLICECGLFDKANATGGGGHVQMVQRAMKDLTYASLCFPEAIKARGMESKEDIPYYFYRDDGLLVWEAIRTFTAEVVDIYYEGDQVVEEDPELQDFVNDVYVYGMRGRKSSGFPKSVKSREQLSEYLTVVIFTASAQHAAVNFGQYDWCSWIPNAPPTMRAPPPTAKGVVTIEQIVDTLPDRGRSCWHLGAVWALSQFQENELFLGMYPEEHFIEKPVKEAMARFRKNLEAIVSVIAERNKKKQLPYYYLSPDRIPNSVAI
As to the kind of experiment: Inhibition of 5-lipoxygenase (5-HETE formation) in human neutrophil/platelet system. The following applies: for % Inhibition at 100 μm: 4-alkoxyphenyl compounds. From the text: This test is a measure of the inhibition of the synthesis of lipoxygenase products generated by human neutrophils and platelets. The protocol is similar to that described in the article "Comparative Effects of Indomethacin, Acetylenic Acids, 15-HETE, NDGA and BW755C on the Metabolism of Arachidonic Acid in Human Leukocytes and Platelets", H. Solari, P. Braquet and P. Borgeat, Prost. Leuk. Med. 13, pp. 53-60, 1984.
Human neutrophils and platelets were obtained from the blood of normal volunteers. The blood was collected into tubes containing EDTA as an anticoagulant. The blood was centrifuged at 250×g for 15 minutes and the platelet rich plasma was removed. The cell fraction was mixed with an equal volume of 0.9% saline containing 10 mM dextrose and resuspended in Dulbecco's phosphate buffered saline (PBS) without Mg^++ and Ca^++ and was counted. The cell suspension was adjusted to give a leukocyte count of 2-3×10^7 cells/ml.
Test compounds were dissolved in ethanol and added to polypropylene tubes. To control tubes (drug-free) only ethanol was added. The ethanol was evaporated to dryness under a stream of argon and then 0.1 ml of the cell suspension (2-3×10^6 cells) was added. This mixture was pre-incubated for 5 minutes at 37° and then the reaction was initiated by addition of ^3 H-arachidonic acid, calcium ionophore (A23187), and calcium ion. The final concentration of each component was: arachidonic acid, 10 uM; A23187, […]; calcium ion, […]. After 5 minutes the incubations were stopped by addition of an equal volume of methanol. The tubes were spun at 11,000 g for 2 minutes to pellet the precipitated protein. The supernatant was analyzed by HPLC for 5-HETE. The formation of this product is indicative of 5-lipoxygenase activity. Test drugs were evaluated for their ability to inhibit 5-HETE formation. Percent inhibition of varying concentrations of test drugs was determined in duplicate by comparing the peak quantitation in the presence and absence (control) of drug. […] The IC50 values were calculated from log-dose response curves of pooled data from at least two experiments by linear regression analysis.
The activity was tested by the same method as in the previous example.
The enzyme inhibitory activity of these compounds was tested by the same method.

A further test has as its target T2, Human Platelet CO (Homo sapiens, UniProt P23219).
T2 construct: Human neutrophils and platelets were obtained from the blood of normal volunteers; endogenous in cells; host or cells: human platelets from blood of normal volunteers
As to the kind of experiment: Inhibition of CO, human platelet. The following applies: for IC50: 95% confidence interval given for some; for inhibition at 100 µM: read-out: % I Human Platelet CO; for inhibition at 100 µM / % I Human Platelet CO: @ 100 μM.

A further test concerns the target T3, Human Platelet 12-LPO (Homo sapiens, UniProt P18054).
T3 construct: Human neutrophils and platelets were obtained from the blood of normal volunteers; endogenous in cells; host or cells: human platelets from blood of normal volunteers
T3 sequence (P18054 1-663): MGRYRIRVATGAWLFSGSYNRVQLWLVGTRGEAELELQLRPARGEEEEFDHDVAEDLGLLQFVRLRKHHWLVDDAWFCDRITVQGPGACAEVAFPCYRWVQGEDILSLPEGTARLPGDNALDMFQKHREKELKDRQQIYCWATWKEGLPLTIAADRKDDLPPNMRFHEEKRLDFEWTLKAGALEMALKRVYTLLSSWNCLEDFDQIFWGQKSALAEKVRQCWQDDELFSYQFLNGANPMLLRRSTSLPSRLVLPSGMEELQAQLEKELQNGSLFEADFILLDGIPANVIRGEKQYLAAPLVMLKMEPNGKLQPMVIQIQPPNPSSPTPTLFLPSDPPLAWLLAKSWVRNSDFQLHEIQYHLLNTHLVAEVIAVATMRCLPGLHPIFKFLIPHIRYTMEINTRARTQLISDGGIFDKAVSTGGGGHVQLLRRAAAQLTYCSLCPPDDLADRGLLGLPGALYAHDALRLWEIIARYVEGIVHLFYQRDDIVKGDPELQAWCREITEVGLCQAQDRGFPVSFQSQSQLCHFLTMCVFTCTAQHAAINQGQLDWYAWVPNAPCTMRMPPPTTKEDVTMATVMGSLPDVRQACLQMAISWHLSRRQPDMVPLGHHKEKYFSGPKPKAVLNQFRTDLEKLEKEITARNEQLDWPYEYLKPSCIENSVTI
As to the kind of experiment: Inhibition of 12-LPO, human platelet. The following applies: for IC50: 95% confidence interval; for inhibition at 100 µM: read-out: % I Human Platelet 12-LPO.

Setting [2] is: PMNL, read-out: % I Human PMNL 5-LPO.
Where [3] appears, read: Table I, R=H, phenylalkyl hydroxamic acids, read-out: IC50 5-LPO (Inhibition of Human Leukocyte 5-LPO).
The mark [4] stands for this setting: FIG. 1 table, 95% confidence interval, read-out: IC50 Human PMNL 5-LPO.
Setting [5] is: ring-substituted 9-phenylnonanohydroxamic acids, read-out: IC50 (5-lipoxygenase).
Setting [6] is: text comparison with prior-art compound, read-out: IC50 in the 5-lipoxygenase inhibition test.

T2 sequence (P23219 24-599): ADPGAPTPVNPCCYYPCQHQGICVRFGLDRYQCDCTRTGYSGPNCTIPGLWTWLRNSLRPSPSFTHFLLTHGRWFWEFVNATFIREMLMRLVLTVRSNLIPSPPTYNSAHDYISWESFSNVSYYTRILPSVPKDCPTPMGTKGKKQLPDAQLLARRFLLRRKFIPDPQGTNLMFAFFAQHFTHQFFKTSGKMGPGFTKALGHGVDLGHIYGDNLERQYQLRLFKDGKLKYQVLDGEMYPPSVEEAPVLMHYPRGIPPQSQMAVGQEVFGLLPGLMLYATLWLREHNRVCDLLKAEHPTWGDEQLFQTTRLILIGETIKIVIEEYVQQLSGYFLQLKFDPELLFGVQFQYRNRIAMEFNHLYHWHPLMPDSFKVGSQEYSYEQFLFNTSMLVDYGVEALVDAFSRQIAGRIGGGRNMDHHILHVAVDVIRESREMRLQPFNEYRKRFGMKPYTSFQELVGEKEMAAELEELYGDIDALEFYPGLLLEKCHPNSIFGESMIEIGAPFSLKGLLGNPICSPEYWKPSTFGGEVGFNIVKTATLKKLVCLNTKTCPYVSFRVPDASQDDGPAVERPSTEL

`O=C(CCCc1ccccc1)NO` [BMY30077]: in test [1] (setting [2]), the inhibition at 100 µM was 11%. Also, the IC50 (usually the midpoint of a concentration-inhibition curve) in test [1] (setting [3]) is over 100 µM. Taken in the same sequence, the figures for `O=C(CCCCc1ccccc1)NO` [BMY30083] were 22% and over 100 µM. As to `O=C(CCCCCCCCCCCCCCc1ccccc1)NO` [BMY30152], the inhibition at 50 µM in test [1] (PMNL, @ 50 μM, read-out: % I Human PMNL 5-LPO) stood at 7.5%. Moreover, the IC50 in test [1] (setting [3]) is over 100 µM.

Consider `CN(O)C(=O)CCCCCCCc1ccccc1` [BMY30208, N-methyl-8-phenyloctanohydroxamic acid], for which the IC50 in test [1] (setting [4]) turned out to be 0.1 µM; on Human Platelet CO, 2.9 µM; at Human Platelet 12-LPO it was 3.6 µM.

As for `CC(C)N(O)C(=O)CCCCCCCc1ccccc1` [BMY30214], the IC50 was 0.16 µM in test [1] (setting [4]), 4.2 µM on Human Platelet CO and 4.5 µM on Human Platelet 12-LPO. Taken in the same sequence, the figures for `CN(O)C(=O)CCCCCCCCCc1ccccc1` [BMY30217] were 0.09 µM, 4.6 µM and 5.5 µM. `CC(C)N(O)C(=O)CCCCCCCCCc1ccccc1` [BMY30218]: the IC50 in test [1] (setting [4]) stood at 0.14 µM; against Human Platelet CO, 7.6 µM; at Human Platelet 12-LPO it was 26.7 µM. Regarding `CC(C)N(O)C(=O)CCCCCCc1ccccc1` [BMY30222], the IC50 in test [1] (setting [4]) was determined as 0.07 µM; at Human Platelet CO, 30.9 µM; on Human Platelet 12-LPO, 12.5 µM.

In the case of `CN(O)C(=O)CCCCCCCCc1ccccc1` [BMY30223], the IC50 in test [1] (setting [4]) is 0.17 µM; against Human Platelet CO, 2.1 µM; against Human Platelet 12-LPO, 2.5 µM.

On to `CC(C)N(O)C(=O)CCCCCCCCc1ccccc1` [BMY30224], for which the IC50 worked out at 0.18 µM in test [1] (setting [4]), 18.4 µM against Human Platelet CO and 13.9 µM against Human Platelet 12-LPO. Turning to `CC(C)N(O)C(=O)CCCCc1ccccc1` [BMY30226], the IC50 in test [1] (setting [4]) amounted to 0.9 µM. For the same compound, the values for the inhibition at 100 µM on Human Platelet CO and at Human Platelet 12-LPO were 25% and 59%, respectively.

`CC(C)N(O)C(=O)CCCc1ccccc1` [BMY30227]: the IC50 in test [1] (setting [4]) came to 0.7 µM. Moreover, the inhibition at 100 µM on Human Platelet CO amounted to 7%; on Human Platelet 12-LPO, 31%.

Consider `CN(O)C(=O)CCCCCCCCCCCCCCc1ccccc1` [BMY30228], for which, in test [1] (setting [4]), the IC50 was 25.3 µM. For the same compound, the “% I Human Platelet CO” value at Human Platelet CO is “inactive”. Further, the inhibition at 100 µM on Human Platelet 12-LPO is 17%. On to `CC(C)N(O)C(=O)CCCCCCCCCCCCCCc1ccccc1` [BMY30229], for which the IC50 in test [1] (setting [4]) worked out at 80 µM. On Human Platelet CO, the “% I Human Platelet CO” value was “inactive”. In addition, on Human Platelet 12-LPO, the inhibition at 100 µM is 10%. As for `COc1ccc(CCCCCCCCC(=O)NO)cc1` [BMY 30173, 9(4-Methoxyphenyl)nonanohydroxamic acid], the IC50 in test [1] (setting [5]) worked out at 2.4 µM.

For `O=C(CCCCCCCCc1ccc(Cl)cc1)NO` [BMY 30174, 9(4-chlorophenyl)nonanohydroxamic acid], in test [1] (setting [5]), the IC50 was 6.1 µM. The same measure, in the same setting: the value for `COc1cccc(CCCCCCCCC(=O)NO)c1` [BMY 30181, 9(3-methoxyphenyl)nonanohydroxamic acid] was 5.4 µM; that for `Cc1cccc(CCCCCCCCC(=O)NO)c1` [BMY 30182, 9(3-methylphenyl)nonanohydroxamic acid] was 6.2 µM.

On to `CCCCCCOc1ccc(CCCCCCCCC(=O)NO)cc1` [BMY 30230, 9(4-Hexyloxyphenyl)nonanohydroxamic acid], for which the % Inhibition (usually how much of the control response was suppressed) at 100 μm in test [1] worked out at 0%.

With `CCCCOc1ccc(CCCCCCCCC(=O)NO)cc1` [BMY 30239, 9(4-Butoxyphenyl)nonanohydroxamic acid], in test [1], the “% Inhibition at 100 μm” value stood at 56.0%.

With `CCCCCCOc1ccc(CCCCCCCCC(=O)N(O)C(C)C)cc1` [BMY 30240, N-isopropyl 9(4-hexyloxyphenyl)nonanohydroxamic acid], the “% Inhibition at 100 μm” value in test [1] is listed as 45.8%. Still for that read-out and setting: the value for `CCCCCCOc1ccc(CCCCCCCCC(=O)N(C)O)cc1` [BMY 30241, N-Methyl 9(4-Hexyloxyphenyl)nonanohydroxamic acid] was 95.9%. For the compound `O=C(CCCCCCc1ccccc1)NO` [Compound 2a], in test [1] (setting [6]), the IC50 came out at 20.9 µM.

Consider `O=C(CCCCCCCc1ccccc1)NO` [Compound 2b], for which the IC50 is 12.2 µM in test [1] (setting [4]) and 26 µM against Human Platelet CO. For the same compound, on Human Platelet 12-LPO, the inhibition at 100 µM came out at 53%. Taken in the same sequence, the figures for `O=C(CCCCCCCCCc1ccccc1)NO` [Compound 2c] were 11.6 µM, 32 µM and 10%. Turning to `O=C(CCCCCCCCCCc1ccccc1)NO` [Compound 2d], in test [1] (setting [3]), the IC50 stood at 11 µM. On the same count and under the same terms, the result for `O=C(CCCCCCCCCCCc1ccccc1)NO` [Compound 2e] reads 10.3 µM. Consider `O=C(NO)c1ccccc1` [n=0, reference compound], for which, in test [1] (setting [3]), the IC50 was over 100 µM. On the same count and under the same terms, the result for `O=C(Cc1ccccc1)NO` [n=1, reference compound] reads over 100 µM; that for `O=C(CCc1ccccc1)NO` [n=2, reference compound], over 100 µM; that for `O=C(CCCCCCCCCCCCc1ccccc1)NO` [n=12, reference compound], over 50 µM. As for `O=C(CCCCCc1ccccc1)NO` [reference compound], the IC50 in test [1] (setting [6]) was over 100 µM.
